Values of other authors, collected in article PMC8654284 (Science Advances, 2021).
Like-named read-outs stand apart in the source and are kept apart here.

Columns and labels:
NK1R [1] = test system: NK1R
NK1R [2] = conditions: NKA and NKB compared to SP
NK1R E172K = conditions: NK1R E172 mutated to lysine as found in NK3R
NK1R [3] = conditions: said to explain the insurmountable antagonism only in part
NK1R [4] = conditions: clinically used NK1R antagonists
[5] = inhibition of receptor activation by SP

Molecule	affinity for NK1R (NK1R [2])	dissociation kinetics (NK1R [3])	in vivo efficacy (duration) (NK1R [4])	mode of antagonism (NK1R [1]; [5])	further results
COc1ccccc1CN[C@H]1CCCN[C@H]1c1ccccc1 [CP-99,994]	–	–	–	–	mode of antagonism (NK1R [1]; compared to aprepitant and netupitant): tight-binding, but surmountable
neurokinin A [NKA]	lower affinity compared to SP	–	–	–	–
neurokinin B [NKB]	lower affinity compared to SP	–	–	–	affinity of NKB at E172K mutant (NK1R E172K): increases affinity
Cc1ccccc1-c1cc(N2CCN(C)CC2)ncc1N(C)C(=O)C(C)(C)c1cc(C(F)(F)F)cc(C(F)(F)F)c1 [netupitant]	–	slower dissociation kinetics	markedly prolonged in vivo efficacy	pseudo-irreversible antagonists	–
C[C@@H](O[C@H]1OCCN(Cc2n[nH]c(=O)[nH]2)[C@H]1c1ccc(F)cc1)c1cc(C(F)(F)F)cc(C(F)(F)F)c1 [aprepitant]	–	slower dissociation kinetics	markedly prolonged in vivo efficacy	pseudo-irreversible antagonists	–
